The text below walks through data of patent US20120135997A1, “PHARMACEUTICAL COMPOSITION COMPRISING A LACTAM OR BENZENESULFONAMIDE COMPOUND” (Shionogi & Co., Ltd., priority 2009, published 2012).

The subject of one data set is Aβ42 production. As to the kind of experiment: Suppressive activity of Aβ42 production in neuroblast expressing human APP695 (ELISA of secreted Aβ42). It is filed as cell-based. As to conditions: secreted Aβ42, SH-SY5Y-APPwt cells, 24 hours. As for the experimental part:
Dose dependent effect of each test compound was evaluated by measurement of secreted Aβ42 and cell viability in SH-SY5Y-APPwt cells. Secreted Aβ42 was quantified by an ELISA assay and cell viability was measured using a cell count reagent.
SH-SY5Y-APPwt cells were generated from human SH-SY5Y neuroblast by transfection of human APP695 DNA as a stable cell-line and cultured in DMEM supplemented with 10% FCS.
SH-SY5Y-APPwt cells were plated at 1.2×10^5 cells/well/150 μl in 96-well plates. A solution of the test compound in DMSO was diluted with DMEM to a concentration 4-fold higher than the final concentration. 50 μl of the diluted solution was sufficiently mixed with the cells and the final DMEM solution was 200 μl/well. The final DMSO concentration was 1%. As a control compound, a γ-secretase inhibitor, DAPT (Calbiochem) was used. 24 hours after, the culture supernatant was collected and appropriately diluted for ELISA quantification of Aβ42. Cells were used for cell viability assay.
Human/Rat β Amyloid(42) ELISA Kit WAKO (WAKO Pure Chemical Industries) was used for ELISA. ELISA was carried out according to the protocols recommended by the manufacturer's instructions. The results were shown as percentage to the Aβ concentration in the medium of control group (% of Control) and then IC50 values of each test compounds were calculated. Cell viability was measured using Cell Count Reagent SF (NACALAI TESQUE) according to the protocols recommended by the manufacturer's instructions. The results were shown as percentage to cell viability of control group (% of Control) and reduction of cell viability was not seen.

Another data set deals with CYP3A4 (Homo sapiens, UniProt P08684). Description: CYP3A4 fluorescent MBI test. It is filed as in vitro ADME. More on the design: host or cells: E. coli. The conditions noted are these: E. coli-expressing CYP3A4, substrate 7-BFC, pre-reaction 0 or 30 minutes. The procedure: The CYP3A4 fluorescent MBI test is a test to examine enhancement of CYP3A4 inhibition by metabolic reaction of the compound. Here, E. coli-expressing CYP3A4 was used as an enzyme, and a reaction wherein 7-benzyloxy trifluoromethylcumarin (BFC) was debenzylated by the CYP3A4 enzyme into a fluorescent metabolite 7-hydroxytrifluoromethylcumarin (HFC) was employed as an indicator reaction.
CYP3A4, sequence (P08684 whole entry): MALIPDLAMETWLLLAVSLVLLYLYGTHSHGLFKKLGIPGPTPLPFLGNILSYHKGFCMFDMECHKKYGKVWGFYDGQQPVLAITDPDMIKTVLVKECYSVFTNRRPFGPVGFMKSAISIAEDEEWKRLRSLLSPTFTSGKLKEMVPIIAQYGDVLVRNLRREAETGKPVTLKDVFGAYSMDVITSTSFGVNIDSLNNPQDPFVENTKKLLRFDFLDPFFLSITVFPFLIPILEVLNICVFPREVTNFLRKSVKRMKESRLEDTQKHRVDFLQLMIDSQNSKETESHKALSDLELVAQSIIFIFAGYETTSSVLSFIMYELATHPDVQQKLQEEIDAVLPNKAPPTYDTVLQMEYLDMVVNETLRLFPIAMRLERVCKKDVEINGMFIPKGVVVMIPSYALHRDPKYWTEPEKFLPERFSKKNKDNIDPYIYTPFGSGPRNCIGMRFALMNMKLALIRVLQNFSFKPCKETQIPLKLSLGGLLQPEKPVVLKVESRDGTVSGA
The reaction conditions are as follows.
Substrate: […] 7-BFC; Pre-reaction time: 0 or 30 minutes; Reaction time: 15 minutes; Reaction temperature: 25° C. […]
The enzyme and a test compound solution are added to a K-Pi buffer (pH 7.4) in the aforementioned amounts for the pre-reaction so that a pre-reaction solution is prepared, and this solution is put into a 96-well plate. […] With respect to each of the plates on which the indicator reaction is performed, the fluorescence value of the metabolite 7-HFC is measured with a fluorescence plate reader (Ex=420 nm, Em=535 nm).
Control (100%) is prepared by adding only DMSO, a solvent to dissolve the test compound, to the reaction system. The remaining activity (%) at each concentration after adding the test compound solution is calculated, and the IC50 value is calculated from the concentration and inhibition percentage by inverse estimation with the logistic model. […]

The target of another data set is T1, hERG channel (IKr) (Homo sapiens, UniProt Q12809).
T1 construct: expressed in transfected cells; host or cells: HEK293
T1 sequence (Q12809 whole entry): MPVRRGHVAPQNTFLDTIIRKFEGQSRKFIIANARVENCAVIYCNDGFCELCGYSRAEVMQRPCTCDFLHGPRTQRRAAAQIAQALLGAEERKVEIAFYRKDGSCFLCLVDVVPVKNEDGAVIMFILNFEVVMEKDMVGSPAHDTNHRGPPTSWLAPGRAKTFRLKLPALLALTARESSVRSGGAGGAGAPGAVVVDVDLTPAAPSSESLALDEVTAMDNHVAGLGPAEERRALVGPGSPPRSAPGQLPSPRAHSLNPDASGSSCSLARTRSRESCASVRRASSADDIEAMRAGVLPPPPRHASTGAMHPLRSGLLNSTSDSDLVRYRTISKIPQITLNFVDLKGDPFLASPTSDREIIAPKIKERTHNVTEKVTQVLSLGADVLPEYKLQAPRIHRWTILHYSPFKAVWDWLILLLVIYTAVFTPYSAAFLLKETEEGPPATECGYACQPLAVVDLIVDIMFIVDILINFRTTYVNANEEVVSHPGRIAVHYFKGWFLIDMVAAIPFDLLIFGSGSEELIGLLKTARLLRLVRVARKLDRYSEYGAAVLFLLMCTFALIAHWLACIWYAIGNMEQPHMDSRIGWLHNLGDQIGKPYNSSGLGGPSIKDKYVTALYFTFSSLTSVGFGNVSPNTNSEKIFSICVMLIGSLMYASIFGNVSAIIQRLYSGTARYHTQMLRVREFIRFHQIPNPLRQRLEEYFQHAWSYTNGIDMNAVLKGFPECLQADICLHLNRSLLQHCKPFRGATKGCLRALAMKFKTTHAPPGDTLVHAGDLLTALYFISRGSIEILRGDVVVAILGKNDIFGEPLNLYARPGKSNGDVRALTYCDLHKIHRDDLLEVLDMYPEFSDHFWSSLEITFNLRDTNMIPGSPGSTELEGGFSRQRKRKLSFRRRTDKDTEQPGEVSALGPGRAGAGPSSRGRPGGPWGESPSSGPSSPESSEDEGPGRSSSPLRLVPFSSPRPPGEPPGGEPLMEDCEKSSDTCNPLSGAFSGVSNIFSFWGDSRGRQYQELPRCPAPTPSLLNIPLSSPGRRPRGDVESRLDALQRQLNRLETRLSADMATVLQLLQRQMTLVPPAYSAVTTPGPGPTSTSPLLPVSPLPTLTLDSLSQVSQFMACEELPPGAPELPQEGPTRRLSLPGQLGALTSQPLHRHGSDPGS
Description: hERG test (whole-cell patch clamp, IKr). It is filed as cell-based. The conditions noted are these: HEK293 cells that express hERG, pH 7.4, HEK293 cell expressing hERG, room temperature, concentration not given, read-out: inhibitory percentage relative to the maximum tail current (IKr). The text has this: For the purpose of risk assessment for QT prolongation on an electrocardiogram, the action on delayed rectifier K+ current (IKr) which plays an important role on a process of ventricular repolarization is studied using a HEK293 cell with a human ether-a-go-go related gene (hERG) channel expressed therein.
A cell is maintained at a membrane potential of −80 mV, and then +50 mV of a depolarizing stimulus is applied to the cell for 2 seconds and further −50 mV of a repolarizing stimulus is applied thereto for 2 seconds by a whole-cell patch clamp technique with a fully-automatic patch clamp system (PatchXpress 7000A, Axon Instruments Inc.), and the induced IKr is recorded. As the current generated is stabilized, an extracellular fluid with the test compound dissolved therein at a target concentration (NaCl: 137 mmol/L, KCl: 4 mmol/L, CaCl2.2H2O: 1.8 mmol/L, MgCl2.6H2O: 1 mmol/L, glucose: 10 mmol/L, HEPES (4-(2-hydroxyethyl)-1-piperazineethanesulfonic acid): 10 mmol/L, pH=7.4) is applied to the cell for 10 minutes under room temperature conditions. The absolute value of the maximum tail current is determined from the obtained IKr with an analysis software (DataXpress ver. 1, Molecular Devices Corporation) based on a current value at a maintained membrane potential. Further, an inhibitory percentage relative to the maximum tail current before application of the test compound is calculated, and influence of the test compound on IKr is evaluated in comparison with the medium application group (0.1% dimethyl sulfoxide solution).
For orientation: Block of hERG is tested as a sign of cardiac risk.

The next data set is described as follows: Solubility test. It is filed as physicochemical. The conditions noted are these: kinetic from dmso stock; 1% DMSO, artificial intestinal juice pH 6.8, 16 hours at 25° C. The procedure:
The solubility of each compound is determined under 1% DMSO addition conditions. A 10 mM solution of the compound is prepared with DMSO, and 6 μL of the compound solution is added to 594 μL of an artificial intestinal juice (water and 118 mL of 0.2 mol/L NaOH reagent are added to 250 mL of 0.2 mol/L potassium dihydrogen phosphate reagent to reach 1000 mL) with a pH of 6.8. The mixture is left standing for 16 hours at 25° C., and the mixture is vacuum-filtered. The filtrate is two-fold diluted with methanol/water=1/1, and the compound concentration in the filtrate is measured with HPLC or LC/MS/MS by the absolute calibration method.

Another data set is described as follows: Metabolic stability test. It is filed as in vitro ADME. The conditions noted are these: human liver microsomes 0.5 mg protein/mL, 1 mmol/L NADPH, 30 minutes at 37° C. As for the experimental part: The test compound is reacted with commercially available pooled human liver microsomes for a predetermined time period. The residual rate is calculated by comparing the reacted sample and unreacted sample, and thus the degree of metabolism in liver is evaluated. In 0.2 mL of a buffer (50 mmol/L tris-HCl pH 7.4, 150 mmol/L potassium chloride, 10 mmol/L magnesium chloride) containing human liver microsomes 0.5 mg protein/mL, reaction is carried out in the presence of 1 mmol/L NADPH for 0 minute or 30 minutes at 37° C. (oxidative reaction). After the reaction, 50 μL of the reaction solution is added to and mixed with 100 μl of a solution of methanol/acetonitrile=1/1 (v/v), and the mixture is centrifuged for 15 minutes at 3000 rpm. The test compound in the centrifuged supernatant is quantified by LC/MS/MS, and the residual amount of the test compound after the reaction is calculated based on the compound amount at O-minute reaction set as 100%.

The subject of the next data set is γ-secretase. Description: Inhibition of γ-secretase activity: CTFβ ELISA in SH-SY5Y-APPwt cells. It is filed as cell-based, human. The conditions noted are these: concentration 1-fold and 10-fold higher than IC50 for Aβ42 inhibition, 24 hours. As for the experimental part:
Inhibition of γ-secretase activity of the test compounds were evaluated by assessment of APP processing by γ-secretase, i.e., by measurement of a γ-secretase substrate C-terminal fragment β (CTFβ) in SH-SY5Y-APPwt cells. Cells were treated in test compound concentration 1-fold and 10-fold higher than its IC50 value for Aβ42 inhibition. CTFβ accumulated by inhibition of γ-secretase activity was quantified by an ELISA assay. SH-SY5Y-APPwt cells were generated from human SH-SY5Y neuroblast by transfection of human APP695 DNA as a stable cell-line and cultured in DMEM supplemented with 10% FCS. SHSY5Y-APPwt cells were plated at 1.0×10^6 cells/well/1 ml DMEM in 6-well plates. A solution of the test compound in DMSO was diluted with DMEM to a concentration 2-fold higher than the final concentration. 1 ml of the diluted solution was sufficiently mixed with the cell and the final DMEM solution was 2 mL/well. The final DMSO concentration was 1%. As a control compound, a γ-secretase inhibitor, DAPT (Calbiochem) was used. […] Protein concentrations in the supernatants were measured by Protein assay Kit (Pierce). The supernatants were diluted and used for CTFβ quantification by βCTF ELISA Kit (IBL) The results were shown as percentage to the CTFβ concentration of control group (added only DMSO) (% of Control), and increasing and decreasing CTFβ of the test compound was calculated. […]
In general terms: An ELISA detects its analyte on a solid surface through an enzyme-linked reagent.

Each structure is given as a SMILES string.

In general, IC50 refers to the midpoint of a concentration-inhibition curve. In the data set with Aβ42 production, `COc1cc(NS(=O)(=O)c2ccc(Cl)c(Cl)c2)ccc1-n1cnc(C)c1` [Compound 1] came in with an IC50 of 900 nM. The “CYP3A4 MBI: difference of the IC50 values” at CYP3A4 is “(−) (when the difference is 3 μM or lower, it is regarded as (−))”.
Compound `COc1cc(NS(=O)(=O)Cc2cccc(Cl)c2)ccc1-n1cnc(C)c1` [Compound 38] showed an IC50 with Aβ42 production of 6600 nM.
`COc1cc(NS(=O)(=O)c2ccccc2F)ccc1-n1cnc(C)c1` [Compound 69]: at hERG channel (IKr), the inhibition at 10 min was 6.4%.
The solubility is the concentration that dissolves in the medium under given conditions. Low values mean little dissolved substance, high ones much dissolved substance. Regarding `COc1cc(NS(=O)(=O)c2ccccc2[N+](=O)[O-])ccc1-n1cnc(C)c1` [Compound 74], the solubility at 16 h in “Solubility test” was over 50 µM. Further, at hERG channel (IKr), the inhibition at 10 min was determined as 1.1%.
As to `COc1cc(NS(=O)(=O)c2ccccc2-c2csc3ccccc23)ccc1-n1cnc(C)c1` [Compound 111], the “CYP3A4 MBI: difference of the IC50 values” at CYP3A4 is reported as “(−) (when the difference is 3 μM or lower, it is regarded as (−))”.
As for `COc1cc(NS(=O)(=O)c2ccc(Cl)nc2)ccc1-n1cnc(C)c1` [Compound 113], the “residual amount of the test compound after the reaction” value in the data set “Metabolic stability test” is recorded as 97.0%. The inhibition at 10 min at hERG channel (IKr) is 8.5%.
For the compound `COc1cc(NS(=O)(=O)c2cccnc2Cl)ccc1-n1cnc(C)c1` [Compound 115], the “residual amount of the test compound after the reaction” value in the data set “Metabolic stability test” was found to be 97.8%.
In turn, `COc1cc(NS(=O)(=O)c2ccccc2-c2ccncc2)ccc1-n1cnc(C)c1` [Compound 178] showed a solubility at 16 h in “Solubility test” of over 50 µM.
The compound `COc1cc(N2Cc3ccc(-c4ccccc4Cl)cc3C2=O)ccc1-n1cnc(C)c1` [Compound 189] yielded an IC50 in the data set on Aβ42 production of 1600 nM.
Still for that read-out and setting: to `COc1cc(N2CCC(NC(=O)c3cccc(Cl)c3)C2=O)ccc1-n1cnc(C)c1` (centres unmarked) [Compound 201] belongs 800 nM; to `COc1cc(N2CCC(NCc3ccc(Cl)cc3)C2=O)ccc1-n1cnc(C)c1` (centres unmarked) [Compound 231], 1800 nM; to `COc1cc(N2CCC(C(c3ccccc3)c3ccccc3)C2=O)ccc1-n1cnc(C)c1` (centres unmarked) [Compound 259], 700 nM.
Compound `COc1cc(NC(=O)Cc2ccc(Cl)c(Cl)c2)ccc1-n1cnc(C)c1` [Compound E8] returned an IC50 with Aβ42 production of 1100 nM.
Consider `C[C@H](NC(=O)Cc1cc(F)cc(F)c1)C(=O)N[C@H](C(=O)OC(C)(C)C)c1ccccc1` [DAPT], for which the “change of CTFβ” value in the data set with γ-secretase is “dose-dependently increased CTFβ”.
